This note sets out measurements from patent publication US20060100260A1, “Substituted pyrazoline carboxanilides for use as pesticides” (priority 2002, published 2006).

Broadly, the chromatographic logP is lipophilicity estimated from chromatographic retention. A low value points to lower lipophilicity.

Data set [1] concerns caterpillars of the armyworm (Spodoptera frugiperda). The data set is described as follows: Spodoptera frugiperda test. Format: in vivo. The settings on record: active compound concentration 100 ppm; after 7 days; dipped cabbage leaves. Here is the method: (§1) [table] To produce a suitable preparation of active compound, 1 part by weight of active compound is mixed with the stated amounts of solvent and emulsifier, and the concentrate is diluted with emulsifier-containing water to the desired concentration. Cabbage leaves (Brassica oleracea) are treated by being dipped into the preparation of active compound of the desired concentration and are populated with caterpillars of the armyworm (Spodoptera frugiperda) while the leaves are still moist. After the desired period of time, the kill in % is determined. 100% means that all caterpillars have been killed; 0% means that none of the caterpillars have been killed.

Data set [2] concerns larvae of the mustard beetle (Phaedon cochleariae). The data set is described as follows: Phaedon larvae test. The data set is classed as in vivo. To be noted: active compound concentration 100 ppm; after 7 days; dipped cabbage leaves. How it is done: as §1, with “with larvae” for “with caterpillars”, “the mustard beetle (Phaedon cochleariae)” for “the armyworm (Spodoptera frugiperda)”, “all beetle larvae” for “all caterpillars”, “the beetle larvae” for “the caterpillars”

In data set [3] the test system is caterpillars of the diamondback moth (Plutella xylostella). The data set is described as follows: Plutella test. The data set is classed as in vivo. To be noted: active compound concentration 100 ppm; after 7 days; dipped cabbage leaves. How it is done: as §1, with “diamondback moth (Plutella xylostella)” for “armyworm (Spodoptera frugiperda)”
Data set [4] in a line: logP determination by HPLC (EEC Directive 79/831 Annex V.A8). The data set is classed as physicochemical. The settings on record: reversed-phase HPLC column (C 18), pH 2.3, reversed-phase column (C 18), 43° C. Here is the method:
The logP values given in the Preparation Examples are determined in accordance with EEC Directive 79/831 Annex V.A8 by HPLC (High Performance Liquid Chromatography) using a reversed-phase column (C 18). Temperature: 43° C.
The determination is carried out in the acidic range at pH 2.3 using the mobile phases 0.1% aqueous phosphoric acid and acetonitrile; linear gradient from 10% acetonitrile to 90% acetonitrile.
Calibration is carried out using unbranched alkan-2-ones (having 3 to 16 carbon atoms) with known logP values (determination of the logP values by the retention times using linear interpolation between two successive alkanones).

In another data set the test system is Heliothis armigera. In words: Heliothis armigera test. Format: in vivo. The settings on record: active compound concentration 100 ppm; after 7 days; dipped soya bean shoots.

Turning to `N#CCN(C(=O)N1CC(n2cc(Cl)cn2)C(c2ccc(Cl)cc2)=N1)c1ccc(Cl)cc1` (stereo not drawn) [Example 1, 3-(4-chlorophenyl)-4-(4-chloropyrazol-1-yl)-4,5-dihydro-1-pyrazolecarboxylic acid (N-cyanomethyl)-4-chloroanilide], the kill (in data set [1]; in data set [2]; in data set [3]; with Heliothis armigera) was 100% in each case. Further, in data set [4], the chromatographic logP worked out at 3.94.
As for `Clc1ccc(C2=NNCC2n2cc(Cl)cn2)cc1` (stereo not drawn) [Example (II-1), 3-(4-chlorophenyl)-4-(4-chloropyrazol-1-yl)-4,5-dihydro-1H-pyrazole], the chromatographic logP in data set [4] is 2.64.
